Test results taken from US20230138047A1, “ANTI-CLAUDIN-1 MONOCLONAL ANTIBODIES FOR THE PREVENTION AND TREATMENT OF FIBROTIC DISEASES” (Université de Strasbourg, priority 2019, published 2023).
Positions count from the first letter of the chain named. Where a name gives a salt, the structure may show the parent alone. One block for each molecule: values may come before it.

What was measured:
[1] = system: bleomycin-induced pulmonary fibrosis
Experimental: Materials and Methods Protocol to Examine the Effects of an anti-human CLDN1 Monoclonal Antibody in Preventing Fibrosis in a Bleomycin-Induced Pulmonary Fibrosis Model. Pathogen-free 6 weeks old female C57BL/6Jmice were obtained from Japan SLC, Inc. (Japan). At Day 0, 54 mice were induced to develop pulmonary fibrosis by a single intratracheal administration of bleomycin hydrochloride (BLM, Nippon Kayaku, Japan) in saline at a dose of 3.0 mg/kg, in a volume of 50 μL per animal using Microsprayer® (Penn-Century, USA). In each slot, the mice were randomized into 3 groups of 18 mice based on their body weight on the day before the start of treatment at Day 0. Individual body weights were measured daily during the experimental period. Survival, clinical signs and behaviour of mice were monitored daily.
Mice groups. Group 1 (Vehicle): Eighteen bleomycin-induced pulmonary fibrosis model mice were intraperitoneally administered vehicle [Saline] in a volume of […] once weekly from Day 0 to 20. […] Group 3 (Dexamethasone): Eighteen bleomycin-induced pulmonary fibrosis model mice were orally administered pure water supplemented with Dexamethasone at a dose of 0.25 mg/kg (in a volume of 10 mL/kg) once daily from Day 0 to 20. Mice in all groups were sacrificed at Day 21.
Survival, biochemical and histological analysis. […]

[2] = system: bleomycin-induced pulmonary fibrosis; assay: Bleomycin-induced pulmonary fibrosis model, late treatment (Day 7 to 20); type: in vivo, C57BL/6J mice; conditions: mean±SD, Day 21
Description: Protocol to Examine the Effects of anti-human CLDN1 Monoclonal Antibody in Treating Fibrosis in a Bleomycin-Induced Pulmonary Fibrosis Model. Pathogen-free 6 weeks old female C57BL/6Jmice will be obtained from Japan SLC, Inc. (Japan). […] The mice were transferred to a clean cage (resting cage) and kept until recovery from anesthesia. The bleomycin administration took place on two separate days, with equal numbers of mice assigned to each day. […] Mice groups. […] Survival, biochemical and histological analysis. […] Lung hydroxyproline content was assessed according to a routine method. Statistical tests. Statistical tests were performed using Kruskal-Wallis test.

[3] = system: BLM-induced skin fibrosis; assay: Bleomycin-induced skin fibrosis model; type: in vivo, mouse; conditions: 50 mg/kg i.p., BLM for 4 weeks
Description: BLM Model and Sampling. As indicated on the scheme presented on FIG. 6, the BLM is subcutaneously injected every other day into the pre-shaved back of mice for 4 weeks. The injection sites are located at the corners of a 1.5 cm^2-square shaved area and used in rotation (corner 1, corner 2, corner 3, corner 4, corner 1, etc). A 5-mm circle is clipped using a dermal punch and used for collagen quantification. The remaining intact area is cut out into 3 rectangles, one for histology and two for biochemical analyses.
Effects of Imatinib on Skin Fibrosis. Imatinib mesylate is a tyrosine kinase inhibitor against c-Abl, PDGFR, and several other tyrosine kinases (Alfiya et al., Arthritis Rheum., 2009, 60: 219). c-Abl is crucial for induction of ECM proteins through the TGF-β pathway. Its inhibition may reduce the synthesis of EMC components. Imatinib interferes with PDGF signalling by blocking the tyrosine kinase activity of PDGFR (Alfiya et al., Arthritis Rheum., 2009, 60: 219). The study design is presented on FIG. 7.

[4] = system: UUO-induced renal interstitial fibrosis; assay: Unilateral ureteral obstruction (UUO)-induced renal interstitial fibrosis; type: in vivo
Experimental: Test Substances. A murinized version of an anti CLDN1 mAb was synthetized at the Inventors' laboratory and used in the present study. […] To prepare dosing solution, the anti-CLDN1 mAb was diluted with a saline solution used as vehicle. Telmisartan (Micardis®) was purchased from Boehringer Ingelheim GmbH (Germany) and dissolved in pure water.
Unilateral Ureteral Obstruction (UUO) Surgery. On Day 0, UUO surgery was performed under three types of mixed anesthetic agents (medetomidine, midazolam, butorphanol). After shaving the hair, the abdomen was cut open and the left ureter was exteriorized. The ureter was ligated by 4-0 silk sutures at two points. The peritoneum and the skin were closed with sutures, and the mice were transferred to a clean cage and kept until recovery from anesthesia.
Route of Drug Administration. The anti-CLDN1 mAb was administered intraperitoneally at a volume of 100 μL/mouse. Telmisartan was administered orally at a volume of 10 μL/mouse.
Treatment Doses. The anti-CLDN1 mAb was administered at a dose of 500 μg/100 μL/mouse. Telmisartan was administered at a dose of 30 mg/kg once daily.
Animals. Seven-week-old female C57BL/6J mice were obtained from Japan SLC, Inc. (Japan). Animals were housed and fed with a normal diet (CE-2; CLEA Japan, Japan) under controlled conditions. All animals used in the study were housed and cared for in accordance with the Japanese Pharmacological Society Guidelines for Animal Use. The animals were maintained in a SPF facility under controlled conditions of temperature (23±3° C.), humidity (50±20%), lighting (12-hour artificial light and dark cycles; light from 8:00 to 20:00) and air exchange. A high pressure was maintained in the experimental room to prevent contamination of the facility. The animals were housed in TPX cages (CLEA Japan) with a maximum of 4 mice per cage. Sterilized Paper-Clean (Japan SLC) was used for bedding and replaced once a week.
Measurement of Plasma Biochemistry. For plasma biochemistry, non-fasting blood was collected in polypropylene tubes with anticoagulant (Novo-Heparin, Mochida Pharmaceutical Co. Ltd., Japan) and centrifuged at 1,000×g for 15 minutes at 4° C. The supernatant was collected and stored at −80° C. until use. Plasma urea nitrogen was measured by FUJI DRI-CHEM 7000 (Fujifilm, Japan).
Measurement of Kidney Biochemistry. To quantify kidney hydroxyproline content, frozen left kidney samples were processed by an alkaline-acid hydrolysis method as follows. Kidney samples were dissolved in 2N NaOH at 65° C., and autoclaved at 121° C. for 20 minutes. The lysed samples (150 μL) were acid-hydrolyzed with 150 μL of 6N HCl at 121° C. for 20 minutes, and neutralized with 150 μL of 4N NaOH containing 10 mg/mL activated carbon. AC buffer (2.2M acetic acid/0.48M citric acid, 150 μL) was added to the samples, followed by centrifugation to collect the supernatant. A standard curve of hydroxyproline was constructed with serial dilutions of trans-4-hydroxy-L-proline (Sigma-Aldrich, USA) starting at 16 μg/mL. The prepared samples and standards (each 400 μL) were mixed with 400 μL chloramine T solution (Nacalai Tesque Inc., Japan) and incubated for 25 minutes at room temperature. The samples were then mixed with Ehrlich's solution (400 μL) and heated at 65° C. for 20 minutes for color development. After samples were cooled on ice and centrifuged to remove precipitates, the optical density of each supernatant was measured at 560 nm. The concentrations of hydroxyproline were calculated from the hydroxyproline standard curve. Protein concentrations of kidney samples were determined using a BCA protein assay kit (Thermo Fisher Scientific, USA) and used to normalize the calculated hydroxyproline values. Kidney hydroxyproline contents were expressed as μg per mg protein.
Histopathological Analyses. For PAS staining, sections were cut from paraffin blocks and stained with Schiff's reagent (Wako Pure Chemical Industries) according to the manufacturer's instructions. […]

human Claudin-1 (CLDN1) [5] = target: T1, human Claudin-1 (CLDN1) (human, UniProt O95832 1-211); assay: flow cytometry on A549 lung cells, PE median fluorescence, Michaelis-Menten fit
T1 construct: whole, on cells; Tight junction membrane protein; endogenously expressed on the cell lines, primary cells and tissues used; also called CLDNA
T1 sequence (looked up): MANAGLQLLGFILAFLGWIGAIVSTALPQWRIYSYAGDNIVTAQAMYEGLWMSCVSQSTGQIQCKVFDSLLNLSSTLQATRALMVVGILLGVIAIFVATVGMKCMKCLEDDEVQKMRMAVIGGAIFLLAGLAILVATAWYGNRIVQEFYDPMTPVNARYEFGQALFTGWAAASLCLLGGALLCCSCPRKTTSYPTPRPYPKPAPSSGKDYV
Experimental: (§1) FIG. 4. Binding Properties of Humanized CLDN1-specific MAbs Targeting CLDN1 Expressed on Kidney RPTEC/TERT1 and Lung A549 Cell Lines. Cells were incubated with increasing concentrations of humanized H3L3 CLDN1-specific mAb, as indicated. Representative histograms show binding of humanized H3L3 CLDN1-specific mAb at the saturation point for each specific cells line: (A) RPTEC/TERT1 (50 μg/mL) and (B) A549 (20 μg/mL). Binding was measured by flow cytometry after incubation with PE-labelled anti-human and analyzed with Cytoflex and FlowJo V10. […] The graphs show binding of humanized H3L3 CLDN1-specific mAb until the saturation point for each specific cell line.
(§2) Binding Studies. Cells were de-attached using a solution of EDTA (4 mM) and re-suspended in PBS containing 1% FBS at 4° C. Then, 150,000 cells were incubated with increasing concentrations of the humanized H3L3 CLDN1-specific mAb (see WO/2017/162678) and the binding signals were read by flow cytometry after incubation with PE-labelled anti-human using a dilution of 1:100 and analyzed with Cytoflex and FlowJo V10. Two washes with PBS containing 1% FBS were performed after every antibody incubation. A binding curve for each cell line was built using the PE median fluorescence intensity (MFI) and the Kd of the interaction was calculated by applying the Michaelis-Menten mathematical model in R 3.5.1.

human Claudin-1 (CLDN1) [6] = target: T1, human Claudin-1 (CLDN1); assay: flow cytometry on RPTEC/TERT1 kidney cells, PE median fluorescence, Michaelis-Menten fit
Experimental: as §1, §2

[7] = Antibody biodistribution in mice (Alexa-fluor 750 label, ex vivo organ fluorescence); design: species or system Balb/c mice; conditions: 500 μg i.p.; organs harvested at 24 hours and 48 hours
Experimental: Reagents and Antibodies. The anti-Claudin-1 monoclonal antibody (anti-CLDN1 mAb-OM-7D3-B3) was produced as previously described (Fofana et al., Gastroenterology, 2010, 139: 953-964, e1-4). Control mAb (rat IgG2b clone LTF-25, Bio X Cell) was also used.
Antibody biodistribution. The antibodies were labeled with Alexa-fluor 750 (RD-Biotech, Besangon, France). Eight week-old Balb/c mice were injected intraperitoneally with 500 μg of Alexa-fluor 750-labeled CLDN1-specific or control mAb. Organs were harvested 24 hours and 48 hours as previously described (Krieger et al., Hepatology, 2010, 51: 1144-1157) and ex vivo organ-specific fluorescence was detected with an IVIS Lumina 50 (Xenogen-Caliper-Perkin-Elmer) and expressed as average efficiency.
Statistical Analyses. The Mann-Whitney test was used. A p-value <0.05 was considered significant. Statistical analyzes were performed with GraphPad Prism 6 software.

[8] = kidney sections versus Vehicle group

Molecule: C[C@@H]1C[C@H]2[C@@H]3CCC4=CC(=O)C=C[C@]4(C)[C@@]3(F)[C@@H](O)C[C@]2(C)[C@@]1(O)C(=O)CO [Dexamethasone]
- mice found dead before reaching Day 21 ([1]; 18 mice per group): Ten out of 18
- survival rate compared with Vehicle group ([1]; Kaplan-Meier, Log Rank Test): significant decrease

Molecule: COC(=O)c1ccc2c(c1)NC(=O)/C2=C(\Nc1ccc(N(C)C(=O)CN2CCN(C)CC2)cc1)c1ccccc1 [Nintedanib]
- lung hydroxyproline levels [2]: 51.3±9.0

Molecule: Cc1ccc(NC(=O)c2ccc(CN3CCN(C)CC3)cc2)cc1Nc1nccc(-c2cccnc2)n1 [Imatinib, Imatinib mesylate]
- dermal thickness ([3]; HE staining): significant decrease
- skin fibrosis area ([3]; Masson staining): significant decrease

Molecule: CCCc1nc2c(C)cc(-c3nc4ccccc4n3C)cc2n1Cc1ccc(-c2ccccc2C(=O)O)cc1 [Telmisartan]
- Sirius red-positive area ([4]; fibrosis area, mean ± S.D., n = 8): 2.44 ± 1.19%
- inflammatory cell infiltration, F4/80 immunostaining [4, 8]: lower than that in the Vehicle group
- inflammatory cell infiltration, PAS staining [4, 8]: lower than in the Vehicle group
- Kidney hydroxyproline ([4]; left kidney, mean ± S.D., n = 8): 6.19 ± 2.31 μg/mg total protein
- Right kidney weight ([4]; mean ± S.D., n = 8): 139 ± 9 mg
- Body weight ([4]; mouse, in vivo): 18.7 ± 1.1 g
- Plasma urea nitrogen ([4]; mouse, in vivo): 33.9 ± 5.2 mg/dL
- Left kidney weight ([4]; obstructed kidney, mean ± S.D., n = 8): 630 ± 160 mg

- Kd (human Claudin-1 (CLDN1) [5]): 16.3 nM
- Kd (human Claudin-1 (CLDN1) [6]): 53 nM
B1: humanized H3L3 CLDN1-specific mAb (antibody, V domains shown)
VH: QVQLVESGGGVVQPGRSLRLSCLGSGFSFSSYGMNWVRQAPGKGLEWVASISPSGSYFYYADSVKGRFTISRDNSKNTLYLQMTSLRAEDTAIYYCARLPGFNPPFDHWGQGTLVTVSS
VL: DIQMTQSPSSLSASVGDRVTITCKASQNVGGNVDWYQWKPGKAPKLLIYGASNRYTGVPDRFRGSGSGTDFTLTISSLQPEDVATYYCLQYKNNPWTFGGGTKVEIK
notes: also called anti-CLDN1 mAb H3L3; humanized anti-CLDN1 mAb

B2: OM-7D3-B3: rat monoclonal antibody against human Claudin-1 secreted by hybridoma DSM ACC2938; VH SEQ ID NO: 1, VL SEQ ID NO: 2 (antibody, V domains shown)
VH: B1 VH with Q1E, V11L, R19K, V37I, D73E, S75A, I93L, T113V, L114V
VL: NTVMTQSPTSMFMSVGDRVTMNCKASQNVGGNVDWYQWKPGQSPKLLMYGASNRYTGVPDRFRGSGSGTDFTLTISNMQTEDLAVYYCLQYKNNPWTFGGGTKVELK
modifications: variable heavy chain of OM-7D3-B3; variable light chain of OM-7D3-B3
- organ enrichment of labeled antibody versus control mAb [7]: enrichment in the anti-CLDN1 monoclonal antibody was observed in skin, kidneys, lungs, intestines and liver
